{"source": "ChEMBL document CHEMBL5537201", "about": "“Discovery of Unique Bis-Substituted Aromatic Amide Derivatives as Novel Highly Potent Antibiotics for Combating Methicillin-Resistant Staphylococcus aureus (MRSA)” (J Med Chem, 2024)", "key": {"[1]": {"test_system": "Staphylococcus aureus", "assay": "Antimicrobial activity against Staphylococcus aureus ATCC6538 assessed as reduction in bacterial growth incubated for 24 hrs by two-fold broth dilution method", "type": "functional"}, "[2]": {"test_system": "Streptomyces albus", "assay": "Antimicrobial activity against Streptomyces albus SHBC D11158 assessed as reduction in bacterial growth incubated for 24 hrs by two-fold broth dilution method", "type": "functional"}, "[3]": {"test_system": "Staphylococcus hominis", "assay": "Antimicrobial activity against methicillin-resistant Staphylococcus hominis assessed as reduction in bacterial growth incubated for 24 hrs by two-fold broth dilution method", "type": "functional"}, "[4]": {"assay": "Cytotoxicity against African green monkey Vero E6 cells assessed as reduction in cell viability measured after 24 hrs by CCK-8 method", "type": "toxicity, cell-based, Chlorocebus sabaeus, Vero C1008"}, "[5]": {"assay": "Selectivity index, ratio of IC50 for African green monkey Vero E6 cells to MIC for Staphylococcus aureus ATCC6538", "type": "toxicity", "details": "read-out: Selectivity Index"}, "[6]": {"test_system": "HeLa", "assay": "Cytotoxicity against human HeLa cells assessed as reduction in cell viability measured after 24 hrs by CCK-8 method", "type": "functional, cell-based"}, "[7]": {"test_system": "A549", "assay": "Cytotoxicity against human A549 cells assessed as reduction in cell viability measured after 24 hrs by CCK-8 method", "type": "functional, cell-based", "details": "A549, 24 h"}, "[8]": {"test_system": "Staphylococcus aureus", "assay": "Antimicrobial activity against methicillin resistant Staphylococcus aureus clinical isolate MRS207 assessed as reduction in bacterial growth incubated for 24 hrs by two-fold broth dilution method", "type": "functional"}, "[9]": {"test_system": "Staphylococcus aureus", "assay": "Antimicrobial activity against methicillin resistant Staphylococcus aureus clinical isolate MRS108 assessed as reduction in bacterial growth incubated for 24 hrs by two-fold broth dilution method", "type": "functional"}, "[10]": {"test_system": "Staphylococcus aureus", "assay": "Antimicrobial activity against methicillin resistant Staphylococcus aureus clinical isolate MRS152 assessed as reduction in bacterial growth incubated for 24 hrs by two-fold broth dilution method", "type": "functional"}, "[11]": {"test_system": "Staphylococcus aureus", "assay": "Antimicrobial activity against methicillin resistant Staphylococcus aureus clinical isolate MRS273 assessed as reduction in bacterial growth incubated for 24 hrs by two-fold broth dilution method", "type": "functional"}, "[12]": {"test_system": "Staphylococcus aureus", "assay": "Antimicrobial activity against methicillin resistant Staphylococcus aureus clinical isolate MRS84 assessed as reduction in bacterial growth incubated for 24 hrs by two-fold broth dilution method", "type": "functional"}, "[13]": {"test_system": "Staphylococcus aureus", "assay": "Antibiofilm activity against Staphylococcus aureus clinical isolate MRS153 assessed as reduction in biofilm formation at 1 to 32 ug/ml incubated for 20 to 22 hrs by crystal violet staining based analysis", "type": "functional, organism-based", "details": "dose 1-32 µg/ml, time 20-22 hrs"}, "[14]": {"test_system": "Staphylococcus aureus", "assay": "Induction of membrane morphological changes in Staphylococcus aureus ATCC6538 assessed as cell rupture at 5 times of MIC measured after 0.5 hrs by FE-SEM analysis", "type": "functional, organism-based"}, "[15]": {"test_system": "Cell membrane", "assay": "Induction of inner membrane permeabilization in methicillin resistant Staphylococcus aureus clinical isolate MRS153 assessed as increase in blue fluorescence at 5 ug/ml by DAPI staining based analysis", "type": "cell membranes", "details": "dose 5.0 µg/ml"}, "[16]": {"test_system": "Staphylococcus aureus", "assay": "Induction of drug resistance in Staphylococcus aureus ATCC6538 assessed as change in MIC measured after 10 passages", "type": "functional"}, "[17]": {"test_system": "Staphylococcus aureus", "assay": "Bactericidal activity against methicillin-resistant Staphylococcus aureus clinical isolate MRS153 at 5 ug/ml measured upto 150 mins", "type": "functional, organism-based", "details": "dose 5.0 µg/ml"}, "[18]": {"test_system": "Staphylococcus aureus", "assay": "Bactericidal activity against methicillin-resistant Staphylococcus aureus clinical isolate MRS97 at 5 ug/ml measured upto 150 mins", "type": "functional, organism-based", "details": "dose 5.0 µg/ml"}, "[19]": {"test_system": "Staphylococcus aureus", "assay": "Bactericidal activity against norfloxacin-resistant Staphylococcus aureus ATCC6538 at 5 ug/ml measured upto 150 mins", "type": "functional, organism-based", "details": "dose 5.0 µg/ml"}, "[20]": {"test_system": "Staphylococcus aureus", "assay": "Antimicrobial activity against vancomycin-resistant Staphylococcus aureus assessed as reduction in bacterial growth incubated for 24 hrs by two-fold broth dilution method", "type": "functional"}, "[21]": {"test_system": "Cell membrane", "assay": "Disruption of cell membrane integrity in methicillin resistant Staphylococcus aureus clinical isolate MRS153 assessed as increase in fluorescence intensity at 1 to 26 times MIC measured upto 36 mins ethidium bromide uptake assay", "type": "cell membranes"}, "[22]": {"test_system": "Cell membrane", "assay": "Induction of cytoplasmic membrane depolarization in methicillin resistant Staphylococcus aureus clinical isolate MRS153 assessed as increase in fluorescence intensity measured upto 120 mins by DiSC3(5) dye based fluorescence method", "type": "cell membranes"}, "[23]": {"test_system": "Peptidoglycan", "assay": "Binding affinity to methicillin resistant Staphylococcus aureus clinical isolate MRS153 peptidoglycan assessed as change in MIC at upto 256 ug/ml measured after 22 hrs", "details": "dose <= 256.0 µg/ml"}, "[24]": {"test_system": "Staphylococcus aureus", "assay": "Binding affinity to methicillin resistant Staphylococcus aureus clinical isolate MRS153 Phosphatidylglycerol assessed as change in MIC at upto 256 ug/ml measured after 22 hrs", "details": "dose <= 256.0 µg/ml"}, "[25]": {"assay": "Binding affinity to Staphylococcus aureus ATCC6538 Cardiolipin assessed as dissociation constant by ITC analysis"}, "[26]": {"assay": "Binding affinity to Staphylococcus aureus ATCC6538 Phosphatidylethanolamine assessed as dissociation constant by ITC analysis"}, "[27]": {"test_system": "Staphylococcus aureus", "assay": "Antimicrobial activity against Staphylococcus aureus ATCC6538 assessed as increase in ROS levels measured upto 90 mins by H2DCFDA probe based flow cytometry", "type": "functional, organism-based"}, "[28]": {"test_system": "Staphylococcus aureus", "assay": "Antimicrobial activity against Staphylococcus aureus ATCC6538 assessed as increase in ROS levels measured upto 180 mins in presence of chloramphenicol by H2DCFDA probe based flow cytometry", "type": "functional, organism-based"}, "[29]": {"test_system": "Staphylococcus aureus", "assay": "Antimicrobial activity against methicillin resistant Staphylococcus aureus clinical isolate MRS153 assessed as increase in ROS levels measured upto 180 mins in presence of chloramphenicol by H2DCFDA probe based flow cytometry", "type": "functional, organism-based"}, "[30]": {"test_system": "Staphylococcus aureus", "assay": "Antimicrobial activity against Staphylococcus aureus ATCC6538 assessed as increase in ROS levels measured upto 180 mins in presence of 2,2'-bipyridyl and thiourea by H2DCFDA probe based flow cytometry", "type": "functional, organism-based"}, "[31]": {"assay": "Toxicity in BALB/c mouse assessed as mouse death at 50 mg/kg, iv measured upto 8 days", "type": "organism-based", "details": "in vivo, 192 h, time < 8 day"}, "[32]": {"assay": "Toxicity in BALB/c mouse assessed as as effect on liver at 25 to 50 mg/kg, iv by H and E staining based analysis", "type": "organism-based", "details": "in vivo, dose 25-50 mg/kg"}, "[33]": {"assay": "Toxicity in BALB/c mouse assessed as as effect on spleen at 25 to 50 mg/kg, iv by H and E staining based analysis", "type": "organism-based", "details": "in vivo, dose 25-50 mg/kg"}, "[34]": {"assay": "Toxicity in BALB/c mouse assessed as as effect on kidney at 25 to 50 mg/kg, iv by H and E staining based analysis", "type": "organism-based", "details": "in vivo, dose 25-50 mg/kg"}, "[35]": {"test_system": "Staphylococcus aureus", "assay": "In vivo antibacterial activity against methicillin-resistant Staphylococcus aureus clinical isolate MRS153 infected in C57BL/6N mouse model assessed as reduction in bacterial load in heart at 3.125 to 12.5 mg/kg, iv measured after 24 hrs", "type": "functional, organism-based", "details": "dose 3.125-12.5 mg/kg"}, "[36]": {"test_system": "Staphylococcus aureus", "assay": "Antibacterial activity against methicillin-resistant Staphylococcus aureus clinical isolate MRS153 infected in C57BL/6N mouse model assessed as infiltration of inflammatory cells at 3.125 to 12.5 mg/kg, iv", "type": "functional, organism-based", "details": "dose 3.125-12.5 mg/kg"}, "[37]": {"test_system": "Staphylococcus aureus", "assay": "Antibacterial activity against methicillin-resistant Staphylococcus aureus clinical isolate MRS153 infected in C57BL/6N mouse model assessed as reversal of cell morphology to normal state at 3.125 to 12.5 mg/kg, iv", "type": "functional, organism-based", "details": "dose 3.125-12.5 mg/kg"}, "[38]": {"test_system": "Staphylococcus aureus", "assay": "Upregulation of multidrug efflux pump genes in Staphylococcus aureus ATCC6538 at 5 ug/ml incubated for 2 hrs by RNA sequencing analysis", "type": "functional", "details": "dose 5.0 µg/ml"}, "[39]": {"test_system": "Staphylococcus aureus", "assay": "Upregulation of redox gene expression in Staphylococcus aureus ATCC6538 at 5 ug/ml incubated for 2 hrs by RNA sequencing analysis", "type": "functional, organism-based", "details": "dose 5.0 µg/ml"}}, "note": "Activity calls are given as the source filed them. The rule behind the calls is not given here."}
{"smiles": "O=C(CCC(F)(F)F)N(Cc1cc2ccccc2s1)c1cc(-c2noc(C(F)(F)F)n2)ccc1O", "values": [{"measurement": "MIC", "setting": "[1]", "result": 0.25, "unit": "µg/mL"}, {"measurement": "MIC", "setting": "[2]", "result": "< 0.5", "unit": "µg/mL"}, {"measurement": "MIC", "setting": "[3]", "result": 1, "unit": "µg/mL"}, {"measurement": "IC50 at 24 h", "setting": "[4]", "result": "> 25", "unit": "µg/mL"}, {"measurement": "selectivity ratio", "setting": "[5]", "result": "> 100"}, {"measurement": "IC50", "setting": "[6]", "result": "> 25", "unit": "µg/mL"}, {"measurement": "IC50", "setting": "[7]", "result": 16.8, "unit": "µg/mL"}, {"measurement": "MIC", "setting": "[8]", "result": 1, "unit": "µg/mL"}, {"measurement": "MIC", "setting": "[9]", "result": 1, "unit": "µg/mL"}, {"measurement": "MIC", "setting": "[10]", "result": 1, "unit": "µg/mL"}, {"measurement": "MIC", "setting": "[11]", "result": 1, "unit": "µg/mL"}, {"measurement": "MIC", "setting": "[12]", "result": 2, "unit": "µg/mL"}, {"measurement": "Activity", "setting": "[13]", "result": "Active"}, {"measurement": "Activity", "setting": "[14]", "result": "Active"}, {"measurement": "Activity", "setting": "[15]", "result": "Active"}, {"measurement": "Activity", "setting": "[16]", "result": "inactive"}, {"measurement": "Activity", "setting": "[17]", "result": "Active"}, {"measurement": "Activity", "setting": "[18]", "result": "Active"}, {"measurement": "Activity", "setting": "[19]", "result": "Active"}, {"measurement": "MIC", "setting": "[20]", "result": 0.5, "unit": "µg/mL"}, {"measurement": "Activity", "setting": "[21]", "result": "Active"}, {"measurement": "Activity", "setting": "[22]", "result": "Active"}, {"measurement": "Activity", "setting": "[23]", "result": "inactive"}, {"measurement": "Activity", "setting": "[24]", "result": "inactive"}, {"measurement": "Kd", "setting": "[25]", "result": 5.75, "unit": "µM"}, {"measurement": "Kd", "setting": "[26]", "result": 183, "unit": "µM"}, {"measurement": "Activity", "setting": "[27]", "result": "Active"}, {"measurement": "Activity", "setting": "[28]", "result": "inactive"}, {"measurement": "Activity", "setting": "[29]", "result": "inactive"}, {"measurement": "Activity", "setting": "[30]", "result": "inactive"}, {"measurement": "Activity", "setting": "[31]", "result": "Non-Toxic"}, {"measurement": "Activity", "setting": "[32]", "result": "Non-Toxic"}, {"measurement": "Activity", "setting": "[33]", "result": "Non-Toxic"}, {"measurement": "Activity", "setting": "[34]", "result": "Non-Toxic"}, {"measurement": "Activity", "setting": "[35]", "result": "Active"}, {"measurement": "Activity", "setting": "[36]", "result": "Active"}, {"measurement": "Activity", "setting": "[37]", "result": "Active"}, {"measurement": "Activity", "setting": "[38]", "result": "Active"}, {"measurement": "Activity", "setting": "[39]", "result": "Active"}]}
